Columns and labels:
[1] = cited from earlier work; for pKa: from Katritzky, Physical Methods in Heterocyclic Chemistry
[2] = Effective critical dimension from CPK space-filling atomic models; assay type: physicochemical
Description: The concept of an "effective critical dimension" of a molecule is described by Breck on pages 633 to 641 in Zeolite Molecular Sieves, John Wiley & Sons, Inc. (1974), the entire contents of which are incorporated herein by reference. Generally, this dimension is the smallest dimension that will permit passage through the pores of the zeolite, i.e., the dimension that most nearly approaches the pore size of the zeolite. For example, the critical dimension of n-hexane is the thickness not the length, while the critical dimension for benzene is the cross-sectional diameter, rather than the thickness.
Effective critical dimensions for the purposes of this invention were determined by the use of CPK (Corey-Pauling-Koltun) space-filling atomic models, obtained from Ealing Corporation, Natick, Mass. The following Table illustrates critical dimensions measured from such models with corresponding pKa values for several heterocyclic compounds.

Row | Effective Critical Dimension [2] | Structure (SMILES) | pKa [1] | relative base strength ([1]; versus 1,10-phenanthroline)
1 | 7.5 Angstroms | Cc1cc(C)c2ccccc2n1 [2,4-Dimethylquinoline] | 5.1 | 
2 | 7.0 Angstroms | Cc1ccncc1C [3,4-Lutidine, 3,4-dimethylpyridine] | 6.5 | 
3 | 7.5 Angstroms | Cc1cc(C)nc(C)c1 [2,4,6-Collidine, 2,4,6-trimethylpyridine] |  | 
4 | 7.4 Angstroms | Cc1ccnc2c(C)cccc12 [4,8-Dimethylquinoline] |  | 
5 | 7.7 Angstroms | Cc1nc(C)c(C)c(C)c1C [Pentamethylpyridine] |  | 
6 | 6.6 Angstroms | Cc1cccc(C)n1 [2,6-Lutidine] | 6.8 | 
7 | 9.5 Angstroms | c1ccc(-c2ccnc3c2ccc2c(-c4ccccc4)ccnc23)cc1 [Bathophenanthroline, 4,7-diphenyl-1,10-phenanthroline] |  | 

More lines, now with the values behind:

Row | Structure (SMILES) | Effective Critical Dimension [2] | pKa [1] | relative base strength ([1]; versus 1,10-phenanthroline)
8 | Cc1cc(C)c2cccc(C)c2n1 [2,4,8-Trimethylquinoline] | 7.9 Angstroms | 4.5 | 
9 | Cc1ccnc2ccccc12 [4-Methylquinoline] | 7.3 Angstroms | 5.2 | 
10 | c1ccncc1 [Pyridine, reference compound] | 6.2 Angstroms |  | 
11 | c1ccc2c(c1)ccc1cccnc12 [7,8-Benzoquinoline] | 7.5 Angstroms |  | 
12 | Cc1ccc2ccc3ccc(C)nc3c2n1 [Neocuproine, 2,9-dimethyl-1,10-phenanthroline] | 8.3 Angstroms |  | 
13 | c1cnc2c(c1)ccc1cccnc12 [1,10-Phenanthroline] | 7.5 Angstroms |  | 
14 | c1ccc2c(c1)ccc1ncccc12 [5,6-Benzoquinoline] | 7.5 Angstroms |  | slightly stronger base than 1,10-phenanthroline

— US4300011A, “Selective production of aromatics” (Mobil Oil Corporation, priority 1980, dated 1981)
